Measured values taken from US9115142B2, “Heterocycle-substituted piperazino-dihydrothienopyrimidines” (Boehringer Ingelheim International GmbH, priority 2007, dated 2015).
Structures can show the parent of a compound that is named as a salt.

Target: PDE4B (Homo sapiens, UniProt Q07343)
Test: Scintillation Proximity Assay (SPA) of PDE4B enzymatic activity ([H3]-cAMP cleavage)
Type: biochemical
Details: test substance 1 μM; one-hour incubation with [H3]-cAMP and PDE4B at 30° C.
Experimental: The Scintillation Proximity Assay (SPA) (GE Healthcare, No. TRKQ7090) was carried out by using the different affinities of cyclic 3″-5″-adenosinemonophosphate (cAMP, low affinity) and linear 5″-adenosinemonophosphate (AMP, high affinity) for yttrium silicate scintillator beads. The cAMP specific phosphodiesterase (PDE) PDE4B cleaves the 3″-phosphoester bond of tritium-labelled [H3]-cAMP to form [H3]-5″-AMP. This [H3]-AMP accumulates on the scintillator beads because of its higher affinity for them and causes scintillation events (flashes of light) which are measured in a Wallac Microbeta Scintillation Counter.
The experiment starts with a one-hour incubation of [H3]-cAMP with the PDE4B enzyme in assay buffer at 30° C., in each case once with the Example substance to be tested (in a concentration of 1 μM) and once without the Example substance to be tested.
After this incubation, the reaction is stopped by the addition of the beads. The beads have an opportunity to settle in the next 45 minutes, then the measurement is carried out in the Scintillation Counter. If the substance is capable of inhibiting the enzymatic activity of the PDE4B, less [H3]-AMP is produced during the incubation phase and fewer scintillation events can be measured.

Sequence of PDE4B (Q07343 whole entry, species assumed): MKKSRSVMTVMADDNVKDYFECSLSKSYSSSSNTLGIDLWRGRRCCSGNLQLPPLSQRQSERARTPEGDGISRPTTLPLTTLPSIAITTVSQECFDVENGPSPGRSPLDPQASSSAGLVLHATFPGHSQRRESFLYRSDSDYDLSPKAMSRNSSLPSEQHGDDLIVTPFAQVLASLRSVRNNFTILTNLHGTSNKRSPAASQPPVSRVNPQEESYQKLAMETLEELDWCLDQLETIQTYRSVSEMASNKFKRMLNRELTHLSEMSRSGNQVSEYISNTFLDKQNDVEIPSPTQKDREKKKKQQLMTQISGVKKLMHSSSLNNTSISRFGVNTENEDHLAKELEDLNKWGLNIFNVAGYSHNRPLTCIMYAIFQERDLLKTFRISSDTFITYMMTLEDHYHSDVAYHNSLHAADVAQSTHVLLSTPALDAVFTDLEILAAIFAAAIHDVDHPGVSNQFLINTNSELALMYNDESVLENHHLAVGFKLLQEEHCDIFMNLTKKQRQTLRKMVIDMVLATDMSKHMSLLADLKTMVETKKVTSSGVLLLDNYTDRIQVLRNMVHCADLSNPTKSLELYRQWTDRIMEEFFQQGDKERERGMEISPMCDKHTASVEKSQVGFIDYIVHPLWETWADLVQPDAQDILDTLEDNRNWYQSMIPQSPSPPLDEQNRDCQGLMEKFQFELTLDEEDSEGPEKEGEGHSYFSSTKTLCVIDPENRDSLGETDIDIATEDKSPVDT

SMILES | inhibition at 1 µM [%]
CCOCCOc1ccc(N2CCN(c3nc4c(c(N[C@@H](CO)C(C)C)n3)[S+]([O-])CC4)CC2)nn1 (stereo partly drawn) [Example 38, (R)-2-(2-{4-[6-(2-ethoxyethoxy)-pyridazin-3-yl]-piperazin-1-yl}-5-oxo-6,7-dihydro-5H-5λ^4-thieno[3,2-d]pyrimidin-4-ylamino)-3-methylbutan-1-ol trifluoroacetate] | 96
COc1cccc2c1nc(N1CCN(c3nc4c(c(N[C@@H](CO)C(C)C)n3)[S+]([O-])CC4)CC1)n2C (stereo partly drawn) [Example 23, (R)-2-{2-[4-(4-methoxy-1-methyl-1H-benzimidazol-2-yl)-piperazin-1-yl]-5-oxo-6,7-dihydro-5H-5λ^4-thieno[3,2-d]pyrimidin-4-ylamino}-3-methylbutan-1-ol] | 83
[O-][S+]1CCc2nc(N3CCN(c4ccncc4)CC3)nc(NC3(CO)CC3)c21 (centres unmarked) [Example 58, {1-[5-oxo-2-(4-pyridin-4-yl-piperazin-1-yl)-6,7-dihydro-5H-5λ^4-thieno[3,2-d]pyrimidin-4-ylamino]-cyclopropyl}-methanol trifluoroacetate] | 91
CC(C)[C@H](CO)Nc1nc(N2CCN(c3ccncn3)CC2)nc2c1[S+]([O-])CC2 (stereo partly drawn) [Example 28, (R)-3-methyl-2-[5-oxo-2-(4-pyrimidin-4-yl-piperazin-1-yl)-6,7-dihydro-5H-5λ^4-thieno[3,2-d]pyrimidin-4-ylamino]-butan-1-ol trifluoroacetate] | 94
CC(C)[C@H](CO)Nc1nc(N2CCN(c3ccc(Cl)nn3)CC2)nc2c1[S+]([O-])CC2 (stereo partly drawn) [Example 6, (R)-2-{2-[4-(6-chlorpyridazin-3-yl)-piperazin-1-yl]-5-oxo-6,7-dihydro-5H-5λ^4-thieno[3,2-d]pyrimidin-4-ylamino}-3-methylbutan-1-ol] | 93
[O-][S+]1CCc2nc(N3CCN(c4nc5ccccc5o4)CC3)nc(NC3CCOCC3)c21 (centres unmarked) [Example 5, [2-(4-benzoxazol-2-yl-piperazin-1-yl)-5-oxo-6,7-dihydro-5H-5λ^4-thieno[3,2-d]pyrimidin-4-yl]-(tetrahydropyran-4-yl)-amine] | 96
[O-][S+]1CCc2nc(N3CCN(c4ccc(Cl)nn4)CC3)nc(Nc3cccc(F)c3)c21 (centres unmarked) [Example 7, {2-[4-(6-chlorpyridazin-3-yl)-piperazin-1-yl]-5-oxo-6,7-dihydro-5H-5λ^4-thieno[3,2-d]pyrimidin-4-yl}-(3-fluorophenyl)-amine] | 95
CCOCCOc1ccc(N2CCN(c3nc4c(c(Nc5cccc(F)c5)n3)[S+]([O-])CC4)CC2)nn1 (centres unmarked) [Example 17, (2-{4-[6-(2-ethoxyethoxy)-pyridazin-3-yl]-piperazin-1-yl}-5-oxo-6,7-dihydro-5H-5λ^4-thieno[3,2-d]pyrimidin-4-yl)-(3-fluorophenyl)-amine] | 97
